Measured values as given in the kinase profiling compilation of Christmann-Franck et al. (2016).

Legend:
Test in all cases: KINOMEscan competition binding
Settings in all cases: compound 0.5 µM
CSNK2A1 (human) = CSNK2A1 (human) (UniProt P68400)
EPHB3 (human) = EPHB3 (human) (UniProt P54753)
IRAK3 (human) = IRAK3 (human) (UniProt Q9Y616)
BMPR1B (human) = BMPR1B (human) (UniProt O00238)
SBK1 (human) = SBK1 (human) (UniProt Q52WX2)
DAPK3 (human) = DAPK3 (human) (UniProt O43293)
EPHB4 (human) = EPHB4 (human) (UniProt P54760)
CHEK2 (human) = CHEK2 (human) (UniProt O96017)
CAMKK2 (human) = CAMKK2 (human) (UniProt Q96RR4)
CHEK1 (human) = CHEK1 (human) (UniProt O14757)
CDK17 (human) = CDK17 (human) (UniProt Q00537)
ITK (human) = ITK (human) (UniProt Q08881)
DYRK1B (human) = DYRK1B (human) (UniProt Q9Y463)
PAK2 (human) = PAK2 (human) (UniProt Q13177)
STK38L (human) = STK38L (human) (UniProt Q9Y2H1)
NUAK1 (human) = NUAK1 (human) (UniProt O60285)
[1] = tested on: PIK3CA (human), P42336 [I800L]
NEK1 (human) = NEK1 (human) (UniProt Q96PY6)
FLT4 (human) = FLT4 (human) (UniProt P35916)
PI4KB (human) = PI4KB (human) (UniProt Q9UBF8)
TAOK3 (human) = TAOK3 (human) (UniProt Q9H2K8)
TXK (human) = TXK (human) (UniProt P42681)
SRMS (human) = SRMS (human) (UniProt Q9H3Y6)
[2] = tested on: FLT3 (human), P36888 [N841I]
CPK1 (P.falciparum) = tested on: CPK1 (P.falciparum)
CSF1R (human) = CSF1R (human) (UniProt P07333)
GSK3A (human) = GSK3A (human) (UniProt P49840)
BRSK2 (human) = BRSK2 (human) (UniProt Q8IWQ3)
SRPK3 (human) = SRPK3 (human) (UniProt Q9UPE1)
MINK1 (human) = MINK1 (human) (UniProt Q8N4C8)
CLK1 (human) = CLK1 (human) (UniProt P49759)
DAPK1 (human) = DAPK1 (human) (UniProt P53355)
BMX (human) = BMX (human) (UniProt P51813)
RPS6KA5 KD2 (human) = RPS6KA5 KD2 (human) (UniProt O75582)
PRKG2 (human) = PRKG2 (human) (UniProt Q13237)
FYN (human) = FYN (human) (UniProt P06241)
CDK11B (human) = CDK11B (human) (UniProt P21127)
ANKK1 (human) = ANKK1 (human) (UniProt Q8NFD2)
AKT1 (human) = AKT1 (human) (UniProt P31749)
TEK (human) = TEK (human) (UniProt Q02763)
ERBB3 (human) = ERBB3 (human) (UniProt P21860)
[3] = tested on: MET (human), P08581 [Y1235D]

ERBB3 (human), sequence (P21860 whole entry, looked up): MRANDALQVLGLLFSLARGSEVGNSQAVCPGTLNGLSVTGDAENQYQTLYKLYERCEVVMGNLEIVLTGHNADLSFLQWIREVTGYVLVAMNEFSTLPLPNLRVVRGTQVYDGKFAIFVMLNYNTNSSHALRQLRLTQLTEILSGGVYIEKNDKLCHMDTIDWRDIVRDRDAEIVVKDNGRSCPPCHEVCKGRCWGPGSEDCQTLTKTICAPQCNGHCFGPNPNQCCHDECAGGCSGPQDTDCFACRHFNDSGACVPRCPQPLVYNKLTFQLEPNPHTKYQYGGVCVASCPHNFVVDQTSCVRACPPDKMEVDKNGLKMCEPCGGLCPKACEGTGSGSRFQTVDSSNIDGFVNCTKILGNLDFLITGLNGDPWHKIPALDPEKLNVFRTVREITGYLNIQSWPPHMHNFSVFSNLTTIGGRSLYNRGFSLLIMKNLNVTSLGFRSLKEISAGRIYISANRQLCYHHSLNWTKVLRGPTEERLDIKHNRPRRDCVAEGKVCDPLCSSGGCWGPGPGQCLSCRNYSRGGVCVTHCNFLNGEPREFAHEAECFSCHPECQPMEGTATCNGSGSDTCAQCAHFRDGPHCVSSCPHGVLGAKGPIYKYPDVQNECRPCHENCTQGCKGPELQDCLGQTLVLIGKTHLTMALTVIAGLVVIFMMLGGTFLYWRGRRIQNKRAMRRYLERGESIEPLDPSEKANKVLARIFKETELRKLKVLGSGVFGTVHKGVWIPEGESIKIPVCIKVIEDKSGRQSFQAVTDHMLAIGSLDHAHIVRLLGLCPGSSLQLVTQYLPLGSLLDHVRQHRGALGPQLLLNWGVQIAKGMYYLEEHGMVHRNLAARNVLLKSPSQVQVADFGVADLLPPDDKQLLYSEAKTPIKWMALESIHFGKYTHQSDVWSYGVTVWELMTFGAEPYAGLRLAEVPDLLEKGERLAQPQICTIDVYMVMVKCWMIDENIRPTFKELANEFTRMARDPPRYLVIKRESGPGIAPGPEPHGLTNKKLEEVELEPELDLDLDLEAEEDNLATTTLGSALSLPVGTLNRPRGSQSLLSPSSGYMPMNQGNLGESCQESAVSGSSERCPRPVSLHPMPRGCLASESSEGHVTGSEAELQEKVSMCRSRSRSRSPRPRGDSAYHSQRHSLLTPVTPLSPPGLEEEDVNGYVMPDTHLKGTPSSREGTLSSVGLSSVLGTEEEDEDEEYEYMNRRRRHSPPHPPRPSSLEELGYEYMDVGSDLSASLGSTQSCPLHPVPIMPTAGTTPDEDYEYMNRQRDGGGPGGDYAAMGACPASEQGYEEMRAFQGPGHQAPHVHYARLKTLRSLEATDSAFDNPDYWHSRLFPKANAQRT
PAK2 (human), sequence (Q13177 whole entry, looked up): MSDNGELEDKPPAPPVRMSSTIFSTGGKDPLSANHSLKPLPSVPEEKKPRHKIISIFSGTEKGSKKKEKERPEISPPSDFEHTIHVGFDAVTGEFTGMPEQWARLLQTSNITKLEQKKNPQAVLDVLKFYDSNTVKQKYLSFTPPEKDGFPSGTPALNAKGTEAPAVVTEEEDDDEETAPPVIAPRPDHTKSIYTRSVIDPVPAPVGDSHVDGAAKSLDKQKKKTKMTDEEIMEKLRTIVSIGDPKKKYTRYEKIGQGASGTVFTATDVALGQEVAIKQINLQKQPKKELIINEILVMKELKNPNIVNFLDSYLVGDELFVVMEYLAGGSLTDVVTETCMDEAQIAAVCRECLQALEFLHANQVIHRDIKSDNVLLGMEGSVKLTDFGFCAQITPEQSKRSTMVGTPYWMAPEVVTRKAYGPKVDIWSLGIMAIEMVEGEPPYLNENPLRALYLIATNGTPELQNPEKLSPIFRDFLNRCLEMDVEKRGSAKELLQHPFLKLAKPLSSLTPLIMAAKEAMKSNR
SBK1 (human), sequence (Q52WX2 whole entry, looked up): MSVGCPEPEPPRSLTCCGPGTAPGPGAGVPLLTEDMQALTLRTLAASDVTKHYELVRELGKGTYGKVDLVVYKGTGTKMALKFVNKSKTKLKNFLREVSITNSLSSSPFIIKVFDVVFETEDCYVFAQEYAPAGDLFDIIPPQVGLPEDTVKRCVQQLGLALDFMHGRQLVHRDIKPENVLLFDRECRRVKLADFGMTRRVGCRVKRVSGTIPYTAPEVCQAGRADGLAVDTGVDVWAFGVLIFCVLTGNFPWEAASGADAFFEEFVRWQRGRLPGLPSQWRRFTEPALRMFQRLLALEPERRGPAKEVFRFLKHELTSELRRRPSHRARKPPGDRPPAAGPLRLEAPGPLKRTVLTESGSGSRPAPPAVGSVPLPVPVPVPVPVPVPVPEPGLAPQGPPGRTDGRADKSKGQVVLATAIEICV
FLT4 (human), sequence (P35916 whole entry, looked up): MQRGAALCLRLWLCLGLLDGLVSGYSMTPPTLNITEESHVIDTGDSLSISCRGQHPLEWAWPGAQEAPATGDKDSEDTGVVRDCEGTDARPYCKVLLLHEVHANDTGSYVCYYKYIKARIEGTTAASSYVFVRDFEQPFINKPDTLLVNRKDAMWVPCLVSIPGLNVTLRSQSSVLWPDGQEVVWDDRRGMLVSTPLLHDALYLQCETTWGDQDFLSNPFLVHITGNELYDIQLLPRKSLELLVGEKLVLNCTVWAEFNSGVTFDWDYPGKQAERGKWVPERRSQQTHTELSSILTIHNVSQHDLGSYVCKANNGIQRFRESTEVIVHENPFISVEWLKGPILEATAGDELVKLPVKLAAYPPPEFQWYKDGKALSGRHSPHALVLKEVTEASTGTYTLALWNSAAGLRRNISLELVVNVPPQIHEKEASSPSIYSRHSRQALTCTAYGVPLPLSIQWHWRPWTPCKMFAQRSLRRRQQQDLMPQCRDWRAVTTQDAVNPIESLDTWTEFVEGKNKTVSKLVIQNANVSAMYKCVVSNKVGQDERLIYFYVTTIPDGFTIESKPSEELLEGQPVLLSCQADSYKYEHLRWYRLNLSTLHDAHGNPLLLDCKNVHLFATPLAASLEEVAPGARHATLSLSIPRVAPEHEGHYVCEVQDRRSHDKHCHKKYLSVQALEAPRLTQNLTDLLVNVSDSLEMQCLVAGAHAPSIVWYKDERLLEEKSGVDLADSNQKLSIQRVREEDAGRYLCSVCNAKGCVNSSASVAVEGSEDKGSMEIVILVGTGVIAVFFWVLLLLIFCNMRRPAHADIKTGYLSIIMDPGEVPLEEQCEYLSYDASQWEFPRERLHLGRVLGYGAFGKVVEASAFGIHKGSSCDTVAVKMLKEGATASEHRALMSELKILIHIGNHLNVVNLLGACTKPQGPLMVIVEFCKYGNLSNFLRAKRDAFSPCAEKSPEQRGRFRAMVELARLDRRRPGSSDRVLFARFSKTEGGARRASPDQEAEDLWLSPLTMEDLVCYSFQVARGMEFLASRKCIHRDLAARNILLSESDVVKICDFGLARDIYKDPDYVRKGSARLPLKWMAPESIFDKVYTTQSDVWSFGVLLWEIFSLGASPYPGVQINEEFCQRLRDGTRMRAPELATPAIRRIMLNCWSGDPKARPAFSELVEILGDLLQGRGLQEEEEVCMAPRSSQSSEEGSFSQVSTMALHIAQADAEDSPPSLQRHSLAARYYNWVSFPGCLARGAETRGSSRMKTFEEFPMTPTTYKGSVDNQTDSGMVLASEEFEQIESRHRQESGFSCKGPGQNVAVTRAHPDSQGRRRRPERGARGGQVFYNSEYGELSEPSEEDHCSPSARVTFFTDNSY
STK38L (human), sequence (Q9Y2H1 whole entry, looked up): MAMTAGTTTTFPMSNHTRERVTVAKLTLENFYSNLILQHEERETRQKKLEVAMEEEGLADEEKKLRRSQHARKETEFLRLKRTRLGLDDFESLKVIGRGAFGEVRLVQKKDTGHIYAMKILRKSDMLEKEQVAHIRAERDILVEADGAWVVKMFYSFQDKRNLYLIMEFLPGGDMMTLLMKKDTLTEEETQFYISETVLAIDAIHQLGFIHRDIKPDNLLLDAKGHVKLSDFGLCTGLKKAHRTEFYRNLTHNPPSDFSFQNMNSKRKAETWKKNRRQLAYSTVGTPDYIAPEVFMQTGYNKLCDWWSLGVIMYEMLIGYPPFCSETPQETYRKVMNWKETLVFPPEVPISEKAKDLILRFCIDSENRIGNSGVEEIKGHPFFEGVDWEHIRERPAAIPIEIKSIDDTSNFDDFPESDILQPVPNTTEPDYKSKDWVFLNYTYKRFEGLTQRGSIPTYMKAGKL
CDK11B (human), sequence (P21127 whole entry, looked up): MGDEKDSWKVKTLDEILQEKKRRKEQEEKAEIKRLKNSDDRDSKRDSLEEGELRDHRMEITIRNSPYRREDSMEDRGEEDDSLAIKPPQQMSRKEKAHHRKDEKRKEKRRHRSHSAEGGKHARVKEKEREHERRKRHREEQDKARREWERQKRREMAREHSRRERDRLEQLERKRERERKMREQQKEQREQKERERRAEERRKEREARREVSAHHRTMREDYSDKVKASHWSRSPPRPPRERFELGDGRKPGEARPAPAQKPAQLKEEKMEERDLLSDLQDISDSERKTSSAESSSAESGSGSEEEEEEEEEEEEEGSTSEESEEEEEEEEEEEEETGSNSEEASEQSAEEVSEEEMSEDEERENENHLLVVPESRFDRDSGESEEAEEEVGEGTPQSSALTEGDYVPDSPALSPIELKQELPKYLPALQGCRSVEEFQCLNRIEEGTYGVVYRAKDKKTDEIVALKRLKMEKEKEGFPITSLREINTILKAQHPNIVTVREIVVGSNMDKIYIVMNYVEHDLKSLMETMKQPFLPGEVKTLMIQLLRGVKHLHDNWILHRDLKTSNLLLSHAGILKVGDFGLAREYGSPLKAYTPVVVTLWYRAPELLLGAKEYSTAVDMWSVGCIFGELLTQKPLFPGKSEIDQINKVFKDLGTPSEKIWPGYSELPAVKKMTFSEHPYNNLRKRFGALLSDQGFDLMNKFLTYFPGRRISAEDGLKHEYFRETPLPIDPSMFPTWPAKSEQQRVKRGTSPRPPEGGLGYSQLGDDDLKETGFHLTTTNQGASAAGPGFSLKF

Work on Cn1c2ccccc2c2c3c(c4c5ccccc5n(CCC#N)c4c21)CNC3=O yielded a kinase still bound, per cent of control (CSNK2A1 (human)) of 80%, a kinase still bound, per cent of control (EPHB3 (human)) of 85% and a kinase still bound, per cent of control (IRAK3 (human)) of 12%. It also gave a kinase still bound, per cent of control (BMPR1B (human)) of 56%, a kinase still bound, per cent of control (SBK1 (human)) of 82% and a kinase still bound, per cent of control (DAPK3 (human)) of 75%. For the same molecule, the kinase still bound, per cent of control (EPHB4 (human)) was 100%, the kinase still bound, per cent of control (CHEK2 (human)) was 31% and the kinase still bound, per cent of control (CAMKK2 (human)) was 1.6%. It also gave a kinase still bound, per cent of control (CHEK1 (human)) of 0.2%, a kinase still bound, per cent of control (CDK17 (human)) of 100% and a kinase still bound, per cent of control (ITK (human)) of 40%. It also gave a kinase still bound, per cent of control (DYRK1B (human)) of 12%, a kinase still bound, per cent of control (PAK2 (human)) of 51% and a kinase still bound, per cent of control (STK38L (human)) of 66%. For the same molecule, the kinase still bound, per cent of control (NUAK1 (human)) was 89%, the kinase still bound, per cent of control [1] was 19% and the kinase still bound, per cent of control (NEK1 (human)) was 99%. It also gave a kinase still bound, per cent of control (FLT4 (human)) of 62%, a kinase still bound, per cent of control (PI4KB (human)) of 62% and a kinase still bound, per cent of control (TAOK3 (human)) of 12%. For the same molecule, the kinase still bound, per cent of control (TXK (human)) was 11%, the kinase still bound, per cent of control (SRMS (human)) was 100% and the kinase still bound, per cent of control [2] was 0%. The kinase still bound, per cent of control (CPK1 (P.falciparum)) was 35%, the kinase still bound, per cent of control (CSF1R (human)) was 37% and the kinase still bound, per cent of control (GSK3A (human)) was 100%. The kinase still bound, per cent of control (BRSK2 (human)) was 49%, the kinase still bound, per cent of control (SRPK3 (human)) was 3.8% and the kinase still bound, per cent of control (MINK1 (human)) was 1%. It also gave a kinase still bound, per cent of control (CLK1 (human)) of 16%, a kinase still bound, per cent of control (DAPK1 (human)) of 78% and a kinase still bound, per cent of control (BMX (human)) of 66%. For the same molecule, the kinase still bound, per cent of control (RPS6KA5 KD2 (human)) was 71%, the kinase still bound, per cent of control (PRKG2 (human)) was 11% and the kinase still bound, per cent of control (FYN (human)) was 92%. For the same molecule, the kinase still bound, per cent of control (CDK11B (human)) was 100%, the kinase still bound, per cent of control (ANKK1 (human)) was 70% and the kinase still bound, per cent of control (AKT1 (human)) was 100%. The kinase still bound, per cent of control (TEK (human)) was 99%, the kinase still bound, per cent of control (ERBB3 (human)) was 94% and the kinase still bound, per cent of control [3] was 80%.
